How the values were obtained:
Assay type in all cases: physicochemical
[1] = Compatibility and stability study of ready-to-use intravenous injections (0.02 and 1.00 mg/ml in pH-adjusted 5% glucose injection); conditions: after filtration, room temperature, indoor ambient lighting
Experimental: In order to provide compatibility information for the injection of the compound of formula I (Compound A, API) and the compatibility solutions, it is necessary to investigate the short-term stability of the injection in 5% glucose injection, a commonly used intravenous diluent. Considering that the API is instable in acidic environments, the pH of the 5% glucose injection is first adjusted to 7.4 using a sodium bicarbonate solution.
1.0 ml of 5% sodium bicarbonate injection was added to 250 ml of 5% glucose injection to adjust the pH, and mixed homogeneously. At this point, the pH of the mixed solution was approximately 8.0.
The Compound A injection (2 ml: 20 mg) was prepared with the pH-adjusted 5% glucose injection into a compatibility solution with a concentration of 0.02 mg/ml, and a compatibility solution with a concentration of 1.00 mg/ml.
0.501 ml of Compound A injection (2 ml: 20 mg) was added to a mixing bag containing 250 ml of 5% glucose injection (whose pH had been pre-adjusted using 5% sodium bicarbonate injection). The mixing bag was repeatedly inverted to ensure homogeneous mixing of the mixed solution before storage and sampling.
27.8 ml of Compound A injection (2 ml: 20 mg) was added to a mixing bag containing 250 ml of 5% glucose injection (whose pH had been pre-adjusted using 5% sodium bicarbonate injection). […]

[2] = Solubility of Compound A in single adjuvant solvents at 25°C (supersaturated solution, sampled every 2 hours); conditions: organic solvent or mixture, thermodynamic from solid; for solubility at 0 h / solubility at 2 h / solubility at 4 h / solubility at 6 h: single solvent
Experimental: In order to increase the concentration of the active pharmaceutical ingredient in the injection, the solubility of the active pharmaceutical ingredient in single adjuvants was investigated to screen for optimal solvents, hydrotropic agents, or solubilizers. The solubility test of Compound A in single solvents was conducted as follows: Each of the single solvents was taken, a certain amount of API (the compound of formula I) was added at 25°C and stirred, and the dissolution of the API in the solvent system was observed. If the dissolution was complete, additional API was added continuously until a supersaturated solution was obtained. Samples were taken every 2 hours, filtered and assayed for content. Table 2: Solubility data of Compound A in single solvents at 25°C

[3] = Solubility of Compound A in formulations with different adjuvants, observations before and after treatment
From the text: Compound A and Compound AST-3424 are structurally similar (both are nitrobenzyl derivatives and linked to a DNA alkylating agent with an aziridine structure that can effectively kill tumor cells). In addition, by releasing the DNA alkylating agent with an aziridine structure in tumor tissues or cells that overexpress the AKR1C3 enzyme, both compounds enable targeted recognition and treatment of any of the tumor tissues or cells that overexpress […] 1C3 (AKR1C3), and achieve the purpose of killing the tumor tissues or cells. Therefore, based on the same formulation development strategy, the inventors designed and selected an injection formulation similar to that of Compound AST-3424 (the optimal formulation of AST-3424: 10 mg/ml Compound AST-3424 + 75% ethanol + 25% propylene glycol) for use in the formulation study of Compound A.
In addition to the solvents used in the reference formulation of Compound AST-3424, absolute ethanol was employed as a commonly used and relatively safe non-aqueous solvent adjuvant for injection formulations. During the development of the product formulation, it was considered to add N,N-dimethylacetamide (DMA) or polyoxyethylene (35) castor oil (ELP) to improve solubility and facilitate the manufacturing convenience. […]

[4] = Stability of Compound A in formulations with different adjuvants at 2-8°C (HPLC content, total impurities, moisture); conditions: stored at 2-8°C for 10 days; all formulation solvent systems
Experimental: For the aforementioned treated Formulations F1 to F4, their specific formulation information is as follows ("p": the formulation obtained by adding ELP to the formulations in Table 3): • F1p: 300 mg API, 7.5 g ELP, and absolute ethanol added to 30 ml; • F2-1p: 3 g propylene glycol, 300 mg API, 7.5 g ELP, and absolute ethanol added to 30 ml; • F2-2p: 9 g propylene glycol, 300 mg API, 7.5 g ELP, and absolute ethanol added to 30 ml; • F3-1p: 1.5 g glycerin, 300 mg API, 7.5 g ELP, and absolute ethanol added to 30 ml; • F3-2p: 4.5 g glycerin, 300 mg API, 7.5 g ELP, and absolute ethanol added to 30 ml; • F4-1: 3 g DMA, 300 mg API, and absolute ethanol added to 30 ml; • F4-2: 9 g DMA, 300 mg API, and absolute ethanol added to 30 ml; • F4-3: 15 g DMA, 300 mg API, and absolute ethanol added to 30 ml.
The stability of Compound A in the aforementioned formulations was investigated. At the predetermined time points (Day 0, Day 5, Day 10), 1 ml samples were taken for HPLC analysis to detect the content, total impurities, and moisture, respectively. Table 4: Stability of Compound A in formulations with different adjuvants at 2-8°C

[5] = Solubility of Compound A in single solvents (water, acidic and alkaline aqueous solutions, isopropanol, methanol) at 25°C
Experimental: The solubility of Compound A in single solvents (water, acidic and alkaline aqueous solutions, isopropanol, and methanol) was investigated. Table 1: Solubility investigation of Compound A at 25°C

[6] = Chiral stability study of the concentrated Compound A injection (-20±5°C, HPLC contents of A-P1 and A-P2); conditions: in its injection formulation
Experimental: (§1) Compound A is a racemic mixture containing one chiral center. Its two isomers, named A-P1 and A-P2, can be obtained by resolving Compound A. During the formulation and compatibility studies, interconversion between the chiral isomers may affect the drug safety. Therefore, it is necessary to study the chiral stability of Compound A in both its injection formulation and the compatibility drug solution of the injection formulation.
(§2) • (a) The concentrated injection formulation of Compound A (2 ml: 20 mg) was prepared according to the aforementioned confirmed Formulation F19 and its preparation method. • (b) The compatibility drug solution with a concentration of 1.00 mg/ml was prepared according to the process for preparing a compatibility solution as described in Section 5.1.
For the injection formulation of Compound A (concentrated injection), the formulation was stored under light-protected, sealed conditions at -20±5°C. Samples were taken at different time points (0 month, 1 month, 3 months), and the contents of A-P1 and A-P2 were determined using the aforementioned HPLC method for stability evaluation.

[7] = Chiral stability study of the 1.00 mg/ml compatibility drug solution of Compound A (room temperature, HPLC contents of A-P1 and A-P2); conditions: in the compatibility solution of the injection formulation
Experimental: as §1, §2
For the 1.00 mg/ml compatibility drug solution (ready-to-use injection), the solution was stored at room temperature (25°C ± 2°C) under indoor ambient lighting. Samples were taken at different time points (0 h, 2 h, 4 h, 8 h and 24 h) and the contents of A-P1 and A-P2 were determined using the aforementioned HPLC method to evaluate chiral stability. Table 27: Chiral stability study of the concentrated Compound A injection

[8] = Polyethylene glycol 400 (PEG 400)
[9] = Polyoxyethylene (35) castor oil (ELP)

O=[N+]([O-])c1ccc(C(OP(=O)(N2CC2)N2CC2)C(F)(F)F)cc1Oc1ccc(-c2ccc(F)cc2)c(F)c1 (racemic) [Compound A]
changes in traits, color and clarity of solution, osmotic pressure, pH value, content of Compound A, and related substances ([1]; 0.02 mg/ml compatibility solutions, within 8 hours): no significant changes | changes in traits, color and clarity of solution, osmotic pressure, pH value, and content of Compound A ([1]; 1.00 mg/ml compatibility solutions, within 6 hours): no significant changes | Solubility ([2]; N,N-dimethylacetamide (single solvent), in N,N-dimethylacetamide): > 200 mg/mL | Solubility ([2]; polyoxyethylene (35) castor oil (single solvent), in polyoxyethylene (35) castor oil): ~20 mg/mL | solubility at 0 h ([2]; Ethanol): 8.95 mg/mL | solubility at 2 h ([2]; Ethanol): 9.09 mg/mL | solubility at 4 h ([2]; Ethanol): 9.43 mg/mL | solubility at 6 h ([2]; Ethanol): 9.28 mg/mL | solubility at 0 h ([2]; N,N-Dimethylacetamide (DMA)): 248 mg/mL | solubility at 2 h ([2]; N,N-Dimethylacetamide (DMA)): 251 mg/mL | solubility at 4 h ([2]; N,N-Dimethylacetamide (DMA)): 251 mg/mL | solubility at 6 h ([2]; N,N-Dimethylacetamide (DMA)): 251 mg/mL | solubility at 0 h [2, 8]: 12.2 mg/mL | solubility at 2 h [2, 8]: 11.2 mg/mL | solubility at 4 h [2, 8]: 15.3 mg/mL | solubility at 6 h [2, 8]: 16 mg/mL | solubility at 0 h [2, 9]: 18.6 mg/mL | solubility at 2 h [2, 9]: 20.7 mg/mL | solubility at 4 h [2, 9]: 20.7 mg/mL | solubility at 6 h [2, 9]: 21.3 mg/mL | dissolution of Compound A ([3]; formulation prepared based on the formulation design of Compound AST-3424 (ethanol:propylene glycol 3:1, 300 mg in 30 ml)): cannot be completely dissolved | Solubility ([3]; mixed solvent of ethanol and propylene glycol): poorly soluble | stability with respect to content, total impurities, and moisture [4]: remained relatively stable | Solubility ([5]; 0.1 mol/L HCl solution, 25°C): Practically insoluble | Solubility ([5]; 0.1 mol/L NaOH solution, 25°C): Practically insoluble | Solubility ([5]; Isopropanol, 25°C): Practically insoluble | Solubility ([5]; Methanol, 25°C): Sparingly soluble | Solubility ([5]; Water, 25°C): Practically insoluble | Solubility ([5]; in water, and acidic and alkaline aqueous solutions): extremely low solubility | chiral stability [6]: chirally stable | chiral stability [7]: chirally stable

From EP4710919A1, “INJECTION PREPARATION AND PREPARATION METHOD THEREFOR, AND COMPATIBLE MEDICINAL LIQUID AND PREPARATION METHOD THEREFOR” (Ascentawits Pharmaceuticals, Ltd., priority 2023, dated 2024)
